From a melting point compilation (Tetko et al.; mined from patent text by program, amines drawn as free bases though some values may be those of a salt)

Row | melting point [°C] | SMILES
1 | 211 to 213 | COc1cccc(OC)c1CN1CC2CCCN2c2ncccc21 (stereo not drawn)
2 | 113 to 115 | CC(=O)c1ccc(NS(C)(=O)=O)c(Nc2ccc(F)cc2F)c1
3 | 99 to 100 | COc1ccc(C2(C#Cc3ccccc3)CCC(=O)CC2)cc1OC1CCCC1
4 | > 300 | Nc1nc(N)nc(N(c2ccc(OCOc3ccc(N(c4nc(N)nc(N)n4)c4nc(N)nc(N)n4)cc3)cc2)c2nc(N)nc(N)n2)n1
5 | 115 to 117 | CCCCNS(=O)(=O)c1ccc(OC)c(NC(C)=O)c1
6 | 77 | CCC1CCC(c2ccc(-c3cc(F)c(C(F)(F)Oc4cc(F)c(C(F)(F)F)c(F)c4)c(F)c3)c(F)c2)CC1 (stereo not drawn)
7 | 159 to 160 | Oc1ccc2c(c1)OCC(N1CCC(O)(c3ccc(F)cc3)CC1)C2O (stereo not drawn)
8 | 97 to 99 | CCOC(=O)[C@H](NS(=O)(=O)c1ccc(C)cc1)[C@@H]1CO[C@@H](c2ccccc2)C1
9 | 113 to 114 | CC(C)Cn1c(CN2C(=O)c3ccccc3C2=O)c(-c2ccccc2)c2cc(OCc3ccccc3)ccc2c1=O
10 | 294 to 295 | O=C(NCC12CC3CC(CC(C3)C1)C2)c1c(Cl)ccc2nc(N3CCC(n4cn[nH]c4=O)CC3)ccc12
11 | 226 to 228 | CC(C)(C)OC(=O)NCCNC(=O)Nc1ccccc1C(=O)NC1CCN(C(c2ccccc2)c2ccccc2)CC1
12 | 144 to 146 | COC(=O)c1cccc2c1C(Cc1ccncc1)(Cc1ccnc(F)c1)c1ccccc1-2 (stereo not drawn)
13 | 177 to 179 | CC(C)(C)OC(=O)Nc1ccc(C#Cc2ccccc2)cc1NC(=O)CC(=O)c1cccc([N+](=O)[O-])c1
14 | 216 to 218 | CN(C)c1ccc(NC(=O)CCC2(c3ccc(Cl)cc3)Nc3cccnc3N2)cc1 (stereo not drawn)
15 | 180 to 181 | CCCn1c(COCC)nc2c(N)nc3ccc(OC4CCN(C(=O)OC(C)(C)C)CC4)cc3c21
16 | 105 to 106 | CCCOc1n[nH]c(=O)n1C1CC1
17 | 144 to 145 | COC(=O)c1cc(Cl)cc2ccoc12
18 | 113 to 115 | O=C(C1CC1)N1CC[C@@H](Oc2ccc(F)cc2)[C@H](c2ccccc2)C1 (relative stereo)
19 | 46 to 48 | CCN(CC)c1ccc(C(=O)c2ccccc2)c(O)c1
20 | 64 | Cc1c(C(=O)c2ccc(F)cc2)cccc1[N+](=O)[O-]
21 | 79 to 80 | Cc1ccccc1SN(C(=O)NC(=O)c1ccccc1Cl)c1ccc(OC(F)(F)F)cc1
22 | 190 to 191 | C=CCOC(=O)c1cccc(NC(=O)NC(CC(=O)OC(C)(C)C)C(=O)Nc2ccccc2C(=O)c2ccc(OC)cc2)c1 (stereo not drawn)
23 | 198 to 200 | Cn1cc(C(=O)c2cnc[nH]2)cc1C(=O)c1ccc(Cl)cc1
24 | 127 to 128 | CC(C)(C)C(=O)CC(Sc1ccccc1)c1ccc(Cl)cc1 (stereo not drawn)

Row | melting point [°C] | SMILES
25 | 194 to 196 | Cc1nn(CCCCO)c(-c2ccc(F)cc2)c1-c1ccc2c(c1)NC(=O)CO2
26 | 242 | CCOC(=O)N1CCC(O)(c2cccs2)CC1
27 | 173 to 175 | COc1ccc(-c2cnc(N3CCc4c([nH]c5ccccc45)C3c3ccc4c(c3)OCO4)nc2)cc1OC (stereo not drawn)
28 | 94 to 98 | CC(=O)c1c(C)c2ccccc2n1N
29 | 44 to 46 | O=C(NCCc1c[nH]c2ccccc12)Oc1ccccc1
30 | > 250 | Cc1cc(-c2ccc(C(F)(F)F)cc2)cc(-c2ccnc(-c3ccc(S(N)(=O)=O)s3)n2)n1
31 | 182 to 185 | COc1cc2cc3c(Nc4ccc(OCc5ccccc5)c(Cl)c4)c(C#N)cnc3cc2cc1OCCCl
32 | 83 to 85 | Cc1nn(-c2cccc(C(F)(F)F)c2)c(C)c1CC(=O)O
33 | 163 to 164 | CCOC(=O)C1=C(C)NC(C)=C(C(=O)OC)C1c1cc([N+](=O)[O-])ccc1Cl (stereo not drawn)
34 | 83 to 85 | CC(C)COC1OC(CO)C(O)C(O)C1(O)N(C(=O)N(CCCl)N=O)C(C)C (stereo not drawn)
35 | 82 to 84 | N=C(N)NC(=O)Cn1c(Cc2ccccc2)ccc1-c1ccccc1
36 | 97 to 100 | C[Si](C)(C)c1ccc(F)c([Si](C)(C)C)c1C(=O)N1CCCC1
37 | 120 to 121 | Cc1c(S(=O)(=O)Nc2ccc(CO)cc2S(C)(=O)=O)sc2ccc(F)cc12
38 | 124 to 126 | CN1C(c2ccc(NS(C)(=O)=O)cc2)NCc2ccccc2C1c1ccccc1 (stereo not drawn)
39 | 148 to 153 | Cc1ccc(N2CCN(Cc3ccc4c(c3)NC(=O)CO4)CC2)cc1C
40 | 167 to 168 | COCCNCCC(=O)Nc1nc(-c2ccccc2)c(-c2ccc(=O)n(C(C)C)n2)s1
41 | 104 to 106 | NC(=O)Cc1ccc(CCCOCCCCCCNCC(O)c2cc(Cl)c(N)c(Cl)c2)cc1 (stereo not drawn)
42 | 85 to 87 | CN(c1ccccc1)c1nc(N(C)c2ccccc2)c2ccsc2n1
43 | 125 to 127 | COc1ccc(-n2cnc3ccc(-c4nnc(CCc5cccc(C#N)c5)o4)cc32)cc1
44 | 189 | OCC1OC(n2cnc3c(Nc4ccccc4)ccnc32)C(O)C1O (stereo not drawn)
45 | 61 to 63 | COc1ccc2cccc(C=O)c2c1
46 | 144 to 145 | CCOCc1cc2cc(Br)ccc2oc1=Nc1ccc(Cl)cc1
47 | 111 to 112 | OCc1c(Cl)cc(Cl)cc1Br
48 | 92 to 93 | Cc1c(F)cnc(N)c1F

Row | melting point [°C] | SMILES
49 | 86 to 88 | Cc1cc(Br)cnc1C#N
50 | 48 to 49 | CCCC[C@@H](O)[C@H](O)CCCC
51 | 193 to 195 | Cc1ccc(-n2c(-c3ccc(CC(=O)O)cc3)ccc2-c2ccc(CC(=O)O)cc2)cc1
52 | 170 to 176 | COC(=O)[C@@H]1CN(CCCCN2C(=O)c3cc(Cl)ccc3S2(=O)=O)CC[C@H]1n1c(=O)[nH]c2ccccc21 (relative stereo)
53 | 61 to 62 | COC(=O)CC1=C(C)Cc2cc(F)c(OC)cc21
54 | 143 | COC(=O)c1c(Cl)nc2cc3c(cc2c1CN1CCN(C)CC1)OCCO3
55 | 172 to 173 | COC(=O)c1ccc(NC(=O)c2cc(C(C)C)c(C(C)C)s2)cc1OC
56 | 283 to 284 | Cc1cc2nc3c(nc2cc1[N+](=O)[O-])SC(=C(C#N)C#N)S3
57 | 163 to 165 | CO/C=C(/C(=O)OC)c1cccnc1Oc1cccc(O)c1
58 | 205 to 208 | N#Cc1nc(N)c(Cl)nc1C#N
59 | > 260 | O=c1oc2cccc(O)c2c2ccc([N+](=O)[O-])cc12
60 | 163 | NC(=O)c1cnccc1C(F)(F)F
61 | 187 | CC(C)c1ncc(O)c(O)n1
62 | 178 to 180 | CCOc1cccc(C(C)CC(=O)Nc2sc3c(c2C#N)CCNC3)c1 (racemic)
63 | 144 to 145 | C/C(Cn1oc(=O)[nH]c1=O)=C(\C)c1cccc(OCc2nc(-c3ccc(C(F)(F)F)cc3)oc2C)c1
64 | 135 to 145 | CC(=O)C(C)OC(=O)CC[C@H]1NC(=O)[C@@H]1N1C(=O)c2ccccc2C1=O (stereo partly drawn)
65 | 75 to 77 | CCCCCCCCCCCCCCCCCCN(CCCCCCCCCCCCCCCCCC)CCCN(CC(=O)OC)CC(=O)OC
66 | 136 to 137 | C#CCCOc1cc(NC(=O)CC(CC(=O)O)C(F)(F)F)c(F)cc1Cl (stereo not drawn)
67 | 110 to 112 | CC(C)(Cl)C(CNC(=O)c1ccc([N+](=O)[O-])o1)N=O (stereo not drawn)
68 | 135 to 137 | CCCS(=O)(=O)NC(=O)C[C@H]1O[C@H](c2cccc(OC)c2OC)c2cc(Cl)ccc2N(CC(C)(C)CO)C1=O
69 | 98 to 104 | CC(C)(C)OC(=O)N1C2CCC1CN(CC(O)COc1ccc(C#N)cc1)C2 (stereo not drawn)
70 | 210 | N#CC1=C(C2CCCCC2)Nc2n[nH]cc2C1c1cccc2nonc12 (stereo not drawn)
71 | 112 to 114 | CCCCn1cnc2c(OCc3cccs3)nc(Nc3ccc(OCC)nc3)nc21
72 | 72 to 74 | CC(=O)SCCC(=O)CCC(=O)O

Row | melting point [°C] | SMILES
73 | 90 to 92 | Fc1cc(Cl)c(OCC2=CCCOC2)cc1-n1nc2c(c1Cl)CCCC2
74 | 63 to 64 | Cc1cccc(CO)c1Cl
75 | 158 to 161 | CCCCc1nn(-c2cc(NC(=O)CC)ccc2C(F)(F)F)c(=O)n1Cc1ccc(-c2ccccc2S(=O)(=O)NC(=O)OC(C)(C)C)cc1
76 | 225 | Cc1cc(COc2ccc(S(=O)(=O)NC[C@@H](C(=O)NO)N3CCNCC3)cc2)c2ccccc2n1
77 | 134 to 135 | CCOC(=O)CNC(=O)Oc1c(C)n(CCOC)ccc1=O
78 | 206 to 208 | Cc1ccc(-c2[nH]c3c(Br)cc(Br)cc3c(=O)c2Cc2ccncc2)cc1
79 | 99 | CC(Nc1nc(N)nc(C(F)(F)F)n1)c1ccc(Cl)cc1 (stereo not drawn)
80 | 276 to 277 | Cc1cccc(CNc2ncnc3nc[nH]c23)c1O
81 | 94 to 96 | COc1cccc(C2=C(CC(C)N3CCCC3)C(=O)NCCC2)c1 (stereo not drawn)
82 | 69 | COc1cc(O)c(C(=O)c2ccccc2)cc1CN(C)C
83 | 144 to 146 | CC(=O)OCC1=C(C(=O)OC(c2ccccc2)c2ccccc2)N2C(=O)C(NC(=O)Cc3csc(-c4c(O)cccc4O)n3)C2SC1 (stereo not drawn)
84 | 140 to 142 | CCCNc1nc(OCC)nc2cscc12
85 | 98 to 100 | CCOC(=O)c1c(COC(C)=O)cccc1S(N)(=O)=O
86 | 198 to 203 | COC(=O)CCCCCCCC(=O)Nc1c(I)c(C(=O)O)c(I)c(N(C)C(C)=O)c1I
87 | 83 to 84.5 | COc1ccc(/C=C/c2ccncn2)cc1OC1CCCC1
88 | 89 to 91 | O=C(O)C(O)c1csc2ccccc12 (stereo not drawn)
89 | 187 to 188 | CC1(C)CCC(C)(C)c2cc(Sc3ccc(C(=O)O)cc3)ccc21
90 | 106 to 108 | C/C(O)=C(\C#N)C(=O)Sc1ccccc1
91 | 86.7 | ClC(Cl)=CCOc1cc(Cl)c(OCc2ccc3ccccc3c2)c(Cl)c1
92 | 122 | COc1ccc(C2CCCN2S(=O)(=O)c2ccc(C)cc2)cc1 (racemic)
93 | 253 to 254 | Cn1c2ccc(Cl)cc2c2c(CBr)nn(-c3ccccc3)c(=O)c21
94 | 155 | O=S1(=O)CC(c2ccc(F)cc2)CN1 (stereo not drawn)
95 | 238 to 239 | CSc1ncc(C)c(=O)[nH]1

Row | SMILES | melting point [°C]
96 | O=S1(=O)N(CCCN2CC=C(c3c[nH]c4ccc(F)cc34)CC2)c2cccc3c2N1CCC3 | 178
97 | O=C(OC1N=C(c2ccccc2)c2ccccc2NC1=O)c1cc2ccccc2[nH]1 (racemic) | 271 to 273
98 | O=C1CN=C(c2ccccc2Cl)c2ccsc2N1 | 221 to 223
